The values that follow are results of earlier work, collected in patent US12233205B2, “Thermal modulation of an inhalable medicament” (priority 2014, dated 2025).

The conditions of one data set: administered IV.
As to `Nc1nc(NC2CC2)c2ncn([C@H]3C=C[C@@H](CO)C3)c2n1` [Abacavir], the bioavailability is 61-89%.
Regarding `Cc1nnc(SCC2=C(C(=O)O)N3C(=O)[C@@H](NC(=O)Cn4cnnn4)[C@H]3SC2)s1` [Cefazolin], the bioavailability entry is listed as “around 78%”.
Take `C[C@@H](O)[C@H]1C(=O)N2C(C(=O)O)=C(S[C@@H]3CN[C@H](C(=O)Nc4cccc(C(=O)O)c4)C3)[C@H](C)[C@H]12` [Ertapenem]: the bioavailability entry is “around 90%”.
Take Gentamicin: the bioavailability result is given as “around 100%”.

Still in this data set, the particulars now being: administered PO.
In the case of `Nc1nc(NC2CC2)c2ncn([C@H]3C=C[C@@H](CO)C3)c2n1` [Abacavir], the bioavailability entry is listed as “around 83%”.
Turning to `Nc1nc2c(ncn2COCCO)c(=O)[nH]1` [Acyclovir], the bioavailability is recorded as 10-20%.
Turning to `NC12CC3CC(CC(C3)C1)C2` [Amantadine], the bioavailability entry is “around 86%”.
For the molecule `CC(=O)Oc1ccccc1C(=O)O` [Aspirin], the bioavailability is given as 61-80%.
With `CC[C@H]1OC(=O)[C@H](C)[C@@H](O[C@H]2C[C@@](C)(OC)[C@@H](O)[C@H](C)O2)[C@H](C)[C@@H](O[C@@H]2O[C@H](C)C[C@H](N(C)C)[C@H]2O)[C@](C)(O)C[C@@H](C)CN(C)[C@H](C)[C@@H](O)[C@]1(C)O` [Azithromycin], the bioavailability entry was “around 38%”.
Take `[H]/N=C(\N/C(=N/[H])NCCCCCCNC(=N)NC(=N)Nc1ccc(Cl)cc1)Nc1ccc(Cl)cc1` [Chlorhexidine]: the bioavailability result is recorded as “around 4%”.
As to `CC[C@H]1OC(=O)[C@H](C)[C@@H](O[C@H]2C[C@@](C)(OC)[C@@H](O)[C@H](C)O2)[C@H](C)[C@@H](O[C@@H]2O[C@H](C)C[C@H](N(C)C)[C@H]2O)[C@](C)(OC)C[C@@H](C)C(=O)[C@H](C)[C@@H](O)[C@]1(C)O` [Clarithromycin], the bioavailability result is given as “around 55%”.
As for `Nc1nc(O)c2ncn(COC(CO)CO)c2n1` [Ganciclovir], the bioavailability entry is listed as “around 5%”.
As for `CC(C)Cc1ccc(C(C)C(=O)O)cc1` (stereo not shown) [Ibuprofen], the bioavailability is given as 58-98%.
`NNC(=O)c1ccncc1` [Isoniazid]: the bioavailability entry is recorded as “around 90%”.
For `C[C@H]1COc2c(N3CCN(C)CC3)c(F)cc3c(=O)c(C(=O)O)cn1c23` [Levofloxacin], the bioavailability result was “around 99%”.
For `CN(C)c1ccc(O)c2c1C[C@H]1C[C@H]3[C@H](N(C)C)C(O)=C(C(N)=O)C(=O)[C@@]3(O)C(O)=C1C2=O` [Minocycline], the bioavailability entry is listed as “around 90%”.
As to `CCOc1ccc2ccccc2c1C(=O)N[C@@H]1C(=O)N2[C@@H]1SC(C)(C)[C@@H]2C(=O)O` [Nafcillin], the bioavailability entry was “around 50%”.
`CN(C)C(=O)Oc1cccc([N+](C)(C)C)c1` [Neostigmine]: the bioavailability is given as 1-2%.
For the molecule `Cc1ccnc2c1NC(=O)c1cccnc1N2C1CC1` [Nevirapine], the bioavailability is reported as 80-94%.
As to `CCOC(=O)C1=C[C@@H](OC(CC)CC)[C@H](NC(C)=O)[C@@H](N)C1` [Oseltamivir], the bioavailability entry was “around 75%”.
For the molecule `CNC[C@H](O)c1cccc(O)c1` [Phenylephrine], the bioavailability entry is reported as “around 38%”.
Regarding `Cc1nnc(C(=O)NC(C)(C)c2nc(C(=O)NCc3ccc(F)cc3)c(O)c(=O)n2C)o1` [Raltegravir], the bioavailability is 20-43%.
Consider `NC(=O)c1ncn([C@@H]2O[C@H](CO)[C@@H](O)[C@H]2O)n1` [Ribavirin], for which the bioavailability entry is given as “around 64%”.
As for `CO[C@H]1/C=C/O[C@@]2(C)Oc3c(C)c(O)c4c(O)c(c(/C=N/N5CCN(C)CC5)c(O)c4c3C2=O)NC(=O)/C(C)=C\C=C\[C@H](C)[C@H](O)[C@@H](C)[C@@H](O)[C@@H](C)[C@H](OC(C)=O)[C@@H]1C` [Rifampin], the bioavailability is listed as 90-95%.
For `COc1cccc(C2(O)CCCCC2CN(C)C)c1` (stereo not shown) [Tramadol], the bioavailability is recorded as 75-95%.
Turning to `CN[C@H](CC(C)C)C(=O)N[C@H]1C(=O)N[C@@H](CC(N)=O)C(=O)N[C@H]2C(=O)N[C@H]3C(=O)N[C@H](C(=O)N[C@H](C(=O)O)c4cc(O)cc(O)c4-c4cc3ccc4O)[C@H](O)c3ccc(c(Cl)c3)Oc3cc2cc(c3O[C@@H]2O[C@H](CO)[C@@H](O)[C@H](O)[C@H]2O[C@H]2C[C@](C)(N)[C@H](O)[C@H](C)O2)Oc2ccc(cc2Cl)[C@H]1O` [Vancomycin], the bioavailability result was “negligible”.
Regarding Gentamicin, the bioavailability result was “negligible”.
Turning to Penicillin G, V, the bioavailability is given as 30-80%.

Still in this data set, the particulars now being: administered PR.
Take `CO[C@@]1(NC(=O)Cc2cccs2)C(=O)N2C(C(=O)O)=C(COC(N)=O)CS[C@@H]21` [Cefoxitin]: the bioavailability is 7-17%.

Still in this data set, the particulars now being: administered as a nasal spray.
For the molecule `CN1CCCC(n2nc(Cc3ccc(Cl)cc3)c3ccccc3c2=O)CC1` (stereo not shown) [Azelastine], the bioavailability result was “around 40%”.
Take `CNS(=O)(=O)Cc1ccc2[nH]cc(CCN(C)C)c2c1` [Sumatriptan]: the bioavailability entry is on record as “around 25%”.

Still in this data set, the particulars now being: administered as an inhalable.
As to `NC[C@H]1O[C@H](O[C@H]2[C@H](O)[C@@H](O[C@H]3O[C@H](CO)[C@@H](O)[C@H](N)[C@H]3O)[C@H](N)C[C@@H]2N)[C@H](N)C[C@@H]1O` [Tobramycin], the bioavailability is listed as 1-16.6%.

The data set is the same for the next values; noted with them: in vivo, im.
As to `CCOC(=O)C1(c2ccccc2)CCN(C)CC1` [Meperidine], the bioavailability result is listed as “around 57%”.

Still in this data set, the particulars now being: in vivo, inhaled or intranasal.
Turning to `C[C@@H]1C[C@H]2[C@@H]3CCC4=CC(=O)C=C[C@]4(C)[C@@]3(Cl)[C@@H](O)C[C@]2(C)[C@@]1(O)C(=O)CCl` [Mometasone], the bioavailability result is “around 1%”.

Still in this data set, the particulars now being: in vivo, po.
Regarding `CNCC[C@H](Oc1cccc2ccccc12)c1cccs1` [Duloxetine], the bioavailability is given as 30-80%.
Consider `Cc1ncc2n1-c1ccc(Cl)cc1C(c1ccccc1F)=NC2` [Midazolam], for which the bioavailability entry was “around 36%”.

The data set is the same for the next values; noted with them: route not stated.
As for `CC(=O)N[C@H]1[C@H]([C@H](O)[C@H](O)CO)OC(C(=O)O)=C[C@@H]1N=C(N)N` [Zanamivir], the bioavailability was 4-17%.
